The source of these data is PubChem BioAssay (NCI).

Common to all, as to test: NCI-60 cell line screen, 48 h
The subject of experiment [1] is M19-MEL melanoma.
The subject of experiment [2] is HOP-92 NSCLC.
Experiment [3] has as its system TK-10 renal.
Experiment [4] has as its system SK-OV-3 ovarian.
In experiment [5] the test system is LXFL 529 NSCLC.
Experiment [6] concerns DLD-1 colon.
The test system of experiment [7] is UO-31 renal.
Experiment [8] concerns COLO 205 colon.
Experiment [9] concerns LOX IMVI melanoma.
In experiment [10] the test system is CCRF-CEM leukemia.
Experiment [11] relates to KM20L2 colon.
The test system of experiment [12] is OVCAR-5 ovarian.

Molecules are shown by their SMILES.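 Assay format: 96-well plates, 48-hour exposure. TGI is the concentration that stops growth completely.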

For the molecule `CN1C(c2ccccc2)CC(=Nc2ccccc2)CC1c1ccccc1` (centres undefined), the TGI in [1] was 15.7 µM; in experiment [2], 22 µM; in experiment [3] it was 36.9 µM; in [4] it was 8.12 µM; in experiment [5] it was 16.4 µM; in experiment [6] it was 24.2 µM. Besides, the TGI in experiment [7] is 47.8 µM; in [8] it was 22.8 µM; in [9], 16.8 µM; in [10], over 100 µM; in experiment [11], 26.5 µM.

With `CCN=C1NN=C(c2ccccc2)c2cc(Cl)ccc2N1`, the TGI in experiment [1] is 39.5 µM; in [2], 47.5 µM; in [3], 62.7 µM; in experiment [4] it was 68.7 µM; in experiment [7], 70.2 µM; in experiment [12] it was 60.9 µM. Moreover, the TGI was 35.4 µM in [8], 36.7 µM in experiment [9] and over 100 µM in experiment [10].

With `CCOC(=O)/C(C#N)=C(O)/C(=C/c1ccccc1Cl)NC(=O)c1ccccc1`, the TGI in experiment [1], in experiment [2], in experiment [3], in experiment [4], in experiment [5] and in experiment [6] was over 100 µM each time. Moreover, the TGI in experiment [7], in experiment [12], in experiment [8], in experiment [10] and in experiment [11] was over 100 µM each time.

Consider `C/C(=N\NC(=S)N(C)C)c1ncc[nH]1`, for which the TGI is over 100 µM in experiment [1]; 7.85 µM in experiment [2]; over 100 µM in [3]; 21.8 µM in [4]; over 100 µM in experiment [5]; over 100 µM in [6]. Moreover, the TGI in experiment [7] was 7.31 µM; in experiment [12] it was 6.19 µM; in experiment [9], over 100 µM; in experiment [10], 54.9 µM; in experiment [11], over 100 µM.

Consider `O=C1C(NCCO)=C(N2CC2)C(=O)C(NCCO)=C1N1CC1`, for which the TGI was over 59.8 µM in experiment [1]; over 100 µM in [2]; over 100 µM in experiment [3]; over 88 µM in experiment [4]; over 92.9 µM in [5]; over 68.8 µM in [6]. Also, the TGI in experiment [7] was over 88 µM; in experiment [12], over 100 µM; in experiment [8], over 90.3 µM; in experiment [9], 41.3 µM; in experiment [10], 55.9 µM; in [11], over 100 µM.

As to `COc1ccccc1NC(=O)CC(=O)n1nc(C)c(N=Nc2ccccc2F)c1C`, the TGI in experiment [1] is over 100 µM; in experiment [2], over 100 µM; in experiment [3] it was over 100 µM; in experiment [4], 83.6 µM; in experiment [5], over 100 µM; in experiment [6], over 100 µM. In addition, the TGI in experiment [7], in experiment [12], in experiment [8], in experiment [9] and in experiment [11] was over 100 µM throughout.

Turning to `C/C(=N\NC(N)=S)c1ccc(/C(C)=N/NC(N)=S)cc1`, the TGI in experiment [1], in experiment [2], in experiment [3], in [4], in experiment [5] and in experiment [6] was over 100 µM throughout. Moreover, the TGI in experiment [7], in experiment [12], in [8], in experiment [9], in experiment [10] and in experiment [11] was over 100 µM each time.

For the molecule `Cc1cc2c(C(C)C)c(O)c(O)c3coc(/c1=c1/c(C)cc4c(C(C)C)c(=O)c(=O)c5coc1c45)c32`, the TGI in experiment [1] worked out at 19.7 µM; in experiment [2] it was 7.11 µM; in experiment [3], 27.8 µM; in experiment [4], 33.7 µM; in experiment [5], 12.7 µM; in [6], 16.4 µM. Besides, the TGI is 31.1 µM in experiment [7]; 32.4 µM in experiment [12]; 5.34 µM in experiment [8]; 18 µM in [9]; 16.6 µM in experiment [10]; 18.1 µM in experiment [11].

Consider `C=CCOc1cc2c(cc1C(C)c1ccc(OC)cc1)OCO2` (centres undefined), for which the TGI in experiment [1] is over 100 µM; in experiment [3] it was over 100 µM; in experiment [5], 63.9 µM; in [6], over 100 µM; in experiment [7], over 87.8 µM; in experiment [12], over 100 µM. For the same molecule, the TGI in experiment [9] is over 83.9 µM; in [10], over 31.7 µM; in experiment [11], 1.21 µM.

In the case of `N=C(c1ccccc1)N1CCCCC1`, the TGI in [1], in [3], in experiment [5], in experiment [6], in experiment [7] and in [12] was over 100 µM in each case. The TGI in experiment [8], in experiment [9] and in experiment [11] was over 100 µM in each case.

With `COc1cc2c(cc1OC)-c1c(cnn1C1OC(COC(C)=O)C(OC(C)=O)C(OC(C)=O)C1OC(C)=O)CC2` (centres undefined), the TGI in [1], in experiment [2], in experiment [3], in experiment [4], in [5] and in experiment [6] was over 100 µM in each case. In addition, the TGI in experiment [7], in [12], in experiment [8], in experiment [9], in experiment [10] and in experiment [11] was over 100 µM each time.
